Experimental data reported in US8703789B2, “Compositions incorporating sesamin-class compounds and vitamin B1 class compounds” (Suntory Holdings Limited, priority 2007, dated 2014).
Counter-ions that a name gives are not always drawn.

Test system: Balb/c male mice kept immersed in water (stress from sleep deprivation)
Assay: Water immersion sleep deprivation test, weight-loaded swimming; critical swimming time = time to nose first submerged for at least 10 seconds (Examples 1 and 3)
Settings: for anti-fatigue action: fatigue animal models
Excerpt: The anti-fatigue action in the present invention, or its effectiveness as “anti-fatigue agents” can be verified by such a method as measuring the swimming time in a water immersion sleep deprivation test. Mice that have been kept in an environment such as water immersion where they are unable to have a good sleep or take a rest position so they cannot have a physical or mental rest are forced to swim under a weight load and the critical swimming time (e.g., the time it takes for the mouse to have its nose first submerged in the water for a period of ten seconds or longer or the time it takes for the mouse to have its nose finally submerged in the water (and incapable of rising up to its surface again)) is measured to confirm the degree of their fatigue. Since this is an animal model for physical or mental fatigue, an extension of the swimming time as achieved by administering it with the test substance means the verification of resistance to fatigue, as exemplified by prevention or relief of physical and/or mental fatigue or any accompanying muscle or other pains, a sufficient increase in body strength to extend the time to total exhaustion, and maintenance of physical vigor in the tired model.
The anti-fatigue effect was evaluated by the following partial modification of the method of Tanaka et al. (Neuroscience, Let. 352, 159-162, 2003): Balb/c male mice (8-week old) were purchased from Japan SLC, Inc. and conditioned in a test environment for a week, and the animals that had grown normally were subjected to the test. They were divided into five groups, as identified in Table 1, such that each group consisted of 10 animals and had the same average body weight. […] Four of those five groups were water immersion groups under stress from sleep deprivation, which were kept in breeding cages, not on paper chips but in tap water (23° C.) supplied to a depth of 7 mm, thereby depriving the mice of sleep. During a two-day immersion in water to deprive sleep, the mice were administered orally with the associated test samples for two days on a one-dose-a-day basis. Of the two test samples, the sesamin-class compounds were dissolved in olive oil and the thiamin in distilled water. The order of administration was the thiamin followed by the sesamin-class compounds; as controls, distilled water and olive oil were administered orally.
After two days of keeping under immersion in water or normal keeping, each mouse was fitted with a weight at the tail which corresponded to 8% of its body weight, and was allowed to swim in a water tank of 18 cm^φ that was filled with water to a depth of 30 cm; the time it took for each mouse to have its nose first submerged in the water for a period of at least 10 seconds was measured as the critical swimming time. […] The degree by which the administration of the test samples (sesamin-class compounds and/or vitamin B1 class compound) could shorten the critical swimming time was measured to evaluate the anti-fatigue action of the test samples.
The anti-fatigue action from independent administration of vitamin B1 class compound was evaluated as in Example 1, except that the mice were divided into nine groups as identified in Tables 3 and 4.

Question: How did the critical swimming time (Example 1, FIG. 1, 50 mg/kg vitamin B1 class compound oral, once a day for two days (comparative group 2) vs comparative group 1) turn out when `Cc1ncc(C[n+]2csc(CCO)c2C)c(N)n1` [vitamin B1 class compound, thiamine hydrochloride] was run?
Answer: no recognizable change in critical swimming time

Question: And the critical swimming time (Example 3, FIG. 3, 5 mg/kg vitamin B1 class compound alone (reference group 1) vs comparative group 7)?
Answer: comparable

Question: What about the critical swimming time (Example 3, FIG. 3, 10 mg/kg vitamin B1 class compound alone (reference group 2) vs comparative group 7) of the same molecule?
Answer: comparable

Question: And the critical swimming time (Example 3, FIG. 3, 25 mg/kg vitamin B1 class compound alone (reference group 3) vs comparative group 7)?
Answer: comparable

Question: What about the critical swimming time (Example 3, FIG. 4, 50 mg/kg vitamin B1 class compound alone (reference group 4) vs comparative group 8) of the same molecule?
Answer: comparable

Question: What about the critical swimming time (Example 3, FIG. 4, 100 mg/kg vitamin B1 class compound alone (reference group 5) vs comparative group 8) of the same molecule?
Answer: longer

Question: What about the anti-fatigue action (only vitamin B1 class compound orally, 5 to 10 mg/kg (FIG. 3)) of the same molecule?
Answer: no anti-fatigue action was observed

Question: What about the anti-fatigue action (vitamin B1 class compound independently, 5 mg/kg (FIGS. 3 and 4)) of the same molecule?
Answer: no anti-fatigue action was observed

Question: What about the anti-fatigue action (vitamin B1 class compound independently, 10 mg/kg (FIGS. 3 and 4)) of the same molecule?
Answer: no anti-fatigue action was observed

Question: And the anti-fatigue action (vitamin B1 class compound independently, 25 mg/kg (FIGS. 3 and 4))?
Answer: no anti-fatigue action was observed

Question: And the anti-fatigue action (vitamin B1 class compound independently, 50 mg/kg (FIGS. 3 and 4))?
Answer: no anti-fatigue action was observed

Question: And the anti-fatigue action (vitamin B1 class compound independently, 100 mg/kg (FIGS. 3 and 4))?
Answer: enhanced
